Measurements published in US8987263B2, “Basic esters of fatty alcohols and their use as anti-inflammatory or immunomodulatory agents” (priority 2002, dated 2015).
Read-outs that look alike come from different tables or passages of the source.

Experiments:
[1] = test system: delayed-type hypersensitivity (DTH) reaction; experiment: Oxazolone-induced DTH skin reaction, mouse ear-swelling test; format: in vivo, BALB/c mice; conditions: for reduction of inflammation in the DTH model: 0.5, 1, 2 and 4 mg in 40 μl 30 min after challenge, dexamethazone 2 mg/40 μl, FIG. 5; for percent inhibition of DTH reaction: read after 24 hours
Experimental: Delayed-type hypersensitivity (DTH), a localized inflammatory reaction induced by cytokines secreted by certain TH cells when they encounter certain types of antigens, is an established experimental model for skin inflammation.
As a first step, DTH reactions were induced in the skin of 8-week-old female BALB/c mice. The mice were sensitized by topical application of 200 μl of a 2% oxazolone (4-ethoxymethylene-2-phenyl-2-oxazolin-5-one; Sigma, St. Louis, Mo.) solution in acetone/olive oil (4:1, vol/vol) to the shaved abdomen of the mice. Six days after sensitization, one ear of each mouse was challenged by topical application of 20 μl of a 0.5% oxazolone solution.
Mice were induced with DTH as in Example 17. […] In addition, a positive control of dexamethazone (2 mg/40 μl) was administered. A group of DTH induced mice was also treated with (4-Methyl-piperazin-1-yl)-acetic acid ethyl ester HCl (negative control.)

[2] = test system: experimental autoimmune encephalomyelitis (EAE); conditions: DA rats; 40 mg IV on day of immunization; vs untreated control; FIG. 2
adjuvant arthritis (AA) = conditions: Lewis rats
EAE [3] = conditions: Lewis rats
Experimental: EAE is induced in 7-9 weeks old female Lewis rats by injecting each foot pad with 25 μg of guinea MBP (50 μg total) in CFA (Sigma). The disease develops about 12 days after immunization and is characterized by paralysis of various degrees due to inflammation of the central nervous system. The rats are scored for paralysis on a scale of 0-4, as described above in Example 13.
EAE was induced in 8-week-old female Lewis rats as described in Example 15 above with guinea pig MBP in CFA.
(§1) The rats were scored for EAE on a severity scale of 0-4 as described above.
as §1
Rats were treated with Compound 9 (100 mg/Kg) per os. The rats were scored for EAE on a severity scale of 0-4 as described above.

[4] = test system: Spleen Cells of GA Immumized Mice; experiment: IL-2 secretion from spleen cells of immunized mice (ELISA); format: cell-based, C57BL/J6 mice; set-up: IL-2 Secretion from 5 × 10^6 Spleen Cells: unit not given here
Experimental: (§2) EAE was tested in CSJL/F1 mice, immunological response was tested in C57BL/J6 mice. Healthy, specific pathogen-free, female CSJLF/1 and male C57BL/J6 mice, were obtained from Harlan Animal Breeding Center, Jerusalem, Israel. The mice were 9-week old at the initiation of the study, weighing 20 g±15%.
(i) The mice were divided into 6 test groups as shown below:
Mice were immunized 10 days prior to spleen collection.
A solution of GA in PBS (final GA concentration of 1.5 mg/mL, for dose of 75 μg/mouse) was diluted in CFA to yield a final concentration of 0.75 mg/mL for dose of 75 μg/mouse GA. The mixtures (GA+CFA) were transferred into a syringe (2.5 mL) connected to a second syringe through a Luer lock bridge and mixed well by transferring the material from one syringe to another for about 10 minutes until the material is well emulsified.
GA (20 mg vial) was dissolved in PBS to yield 20 mg/mL solution, then further diluted in PBS to yield a final GA concentration of 1.5 mg/mL for dose of 75 μg/mouse. Equal volumes of Compound 3 and GA or PBS for control group were mixed.
Spleens were collected and pooled for each group in sterile RPMI medium. Cells were extracted resuspended in enriched DCCM1 medium and counted. […] Supernatants were collected and tested for levels of cytokines secretion.
(vii) Detection of cytokine secretion in primary cultures from spleens was performed employing ELISA. Cells were activated in-vitro and IL-2 secretion levels were detected using commercial kits according to the provider's instructions.

[5] = format: in vivo
Experimental: The mice were scored according to following chart: 0—normal behavior; 1—slight toxic signs (piloerection); 2—moderate toxic signs (partial eye lid closure, hunched posture, hypoactivity, apathy); 3—severe toxic signs (ataxia, convulsions, gasping respiration, paralysis, unconscious); 4—death. Mice were weighed before immunization and on the day of the termination of the study. […] The spleens were weighed and spleen/body weight ratio was calculated.

EAE [6] = format: in vivo; conditions: CSJL/F1 mice, GA 5.0 mg/mouse, Compound 3 0.5 mg/mouse
Experimental: as §2
(i) The mice were divided into 4 test groups as shown below:
For immunization of group 1, a GA solution in PBS (100 mg/mL) was diluted 1:2 in IFA to yield a final concentration of 50 mg/mL for injection of 5.0 mg/mouse GA (0.1 ml). The GA+IFA mixtures were transferred into a syringe (2.5 mL) connected to a second syringe through a Luer lock bridge and mixed well by transferring the material from one syringe to another for about 10 minutes until the material was well emulsified.
EAE was induced by injecting the encephalitogenic agent consisting of MSCH and commercial CFA containing Mycobacterium tuberculosis H37Ra to the foot-pads of the animals and pertussis toxin IV.
They were weighed before immunization and once a week thereafter until the termination of the study. Ten days after induction of EAE, the mice were examined for EAE clinical signs and scored. The EAE clinical signs were observed and scored from the 9th day post-EAE induction until the termination of the experiment according to the following five-graded scale to assess clinical severity: 0, normal behavior; 1, weight loss; 2, tail weakness; 3, hind legs hypotonia and weakness; 4, hind legs paralysis; 4, severe total paralysis; 5, impaired respiration and/or convulsions and/or full paralysis or death.
Calculation of mortality: The number of sick and dead animals in each group was determined, and the incidence of disease and mortality rate was calculated as follows: […]
Calculation of percent activity: The percentage activity according to mortality was calculated as follows: […]
Calculation of mean duration of disease and onset of disease: The mean duration of the disease and onset of disease expressed in days was calculated.
Calculation of the mean maximal score and percent inhibition: The maximal scores of each of the 10 mice in the test group were summed.
The mean maximal score (MMS) of the group was calculated as follows: […]
The percent inhibition was calculated as follows: […]
Calculation of the mean group score and percent inhibition: The scores of each of the 10 mice in the test group was summed.
The mean group score (GMS) of the group was calculated as follows: […]

[7] = 0.2 mg per os every day from EAE induction
[8] = 1 mg per os every day from EAE induction
[9] = 2 mg per os every day from EAE induction
[10] = 10 mg per os every day from EAE induction
[11] = 20 mg per os every day from EAE induction

For `CCCCCCCC/C=C\CCCCCCCCOC(=O)C(N)c1ccccc1.Cl` (stereo not drawn) [Compound 11, α-Amino-α-phenyl-acetic acid octadec-(Z)-9-enyl ester HCl salt], the “reduction of inflammation in the DTH model” value (“reduction of inflammation” for short) [1] was “inhibit DTH Skin Reaction”.
In the case of `CCCCCCCC/C=C\CCCCCCCCOC(=O)CN(C)C` [Compound 1, N,N-Dimethylamino-acetic acid octadec-(Z)-9-enyl ester], the “prevention of paralysis (EAE score 0-4)” value [2] was “could prevent the paralysis to a significant degree” and the “protection against the inflammation caused by AA (AA score 0-16)” value (adjuvant arthritis (AA); 40 mg IV on day 0 or on day 14 after onset of AA, FIG. 1) was “could protect the rats against the inflammation caused by AA”.
In the case of `CCOC(=O)CN1CCN(C)CC1.Cl` [negative control, (4-Methyl-piperazin-1-yl)-acetic acid ethyl ester HCl, reference compound], the “reduction of inflammation” value [1] was “did not show any positive results”.
For `CCCCCCCC/C=C\CCCCCCCCOC(=O)CN1CCNCC1.O=C(O)C(O)C(O)C(=O)O` [Compound 9, Piperazin-1-yl-acetic acid octadec-(Z)-9-enyl ester bitartrate], the “reduction of inflammation” value [1] was “inhibit DTH Skin Reaction”, the “protection against EAE” value (EAE [3]; 100 mg/Kg administered orally, FIG. 9) was “could protect the rats against EAE” and the “% Sick rats” value (EAE [3]; 100 Mg/Kg per os) was 100%. The “% inhibition” value (EAE [3]; 100 Mg/Kg per os) was 31.4%, the “Mean Clinic Score” value (EAE [3]; 100 Mg/Kg per os) was 1.93 ± 0.45 and the Mean onset (EAE [3]; 100 Mg/Kg per os) was 11.5.
For “glatiramer acetate [GA, reference compound]”, the “IL-2 Secretion from 5 × 10^6 Spleen Cells” value ([4]; GA activator conc. 2.5 (mg/mL), mice immunized with GA 75 μg/m, no Comp. 3) was 47.9, the “IL-2 Secretion from 5 × 10^6 Spleen Cells” value ([4]; GA activator conc. 25.0 (mg/mL), mice immunized with GA 75 μg/m, no Comp. 3) was 124.3 and the “IL-2 Secretion from 5 × 10^6 Spleen Cells” value ([4]; activator Con A 2.5 (mg/mL), mice immunized with GA 75 μg/m, no Comp. 3) was 419.6. For the same molecule, the “IL-2 Secretion from 5 × 10^6 Spleen Cells” value ([4]; activator conc. 0, mice immunized with GA 75 μg/m, no Comp. 3) was “UQL”.
In the case of `CCCCCCCC/C=C\CCCCCCCCOC(=O)c1ccc(CN(C)C)cc1.Cl` [Compound 5, 4-dimethylaminomethyl-benzoic acid octadec-(Z)-9-enyl ester HCl], the “reduction of inflammation” value [1] was “inhibit DTH Skin Reaction”.
With `C[C@@H]1C[C@H]2[C@@H]3CCC4=CC(=O)C=C[C@]4(C)[C@@]3(F)[C@@H](O)C[C@]2(C)[C@@]1(O)C(=O)CO` [dexamethazone, reference compound] the “reduction of inflammation” value [1] was “positive results in reducing inflammation”.
In the case of `CCCCCCCC/C=C\CCCCCCCCOC(=O)CN1CCN(C)CC1.O=C(O)C(O)C(O)C(=O)O` [Compound 3, (4-Methyl-piperazin-1-yl)-acetic acid octadec-(Z)-9-enyl ester tartrate], the “effect on mice weight” value ([5]; Compound 3 50 and 500 μg/mouse, with or without GA 75 μg/mouse) was “no adverse effect”, the signs of immunosuppression ([5]; Compound 3 with or without GA) was “no signs of immunosuppression” and the “percent inhibition of DTH reaction” value ([1]; 1 mg topical on challenged ear 30 min after challenge) was 12.5%. For the same molecule, the “percent inhibition of DTH reaction” value ([1]; 2 mg topical on challenged ear 30 min after challenge) was 8%, the “% inhibition” value (EAE [3]; [7]) was 28% and the “Mean Clinic Score” value (EAE [3]; [7]) was 2.1. The “% inhibition” value (EAE [3]; [8]) was 28%, the “Mean Clinic Score” value (EAE [3]; [8]) was 2.1 and the “% inhibition” value (EAE [3]; [9]) was 14%. For the same molecule, the “Mean Clinic Score” value (EAE [3]; [9]) was 2.5, the “% inhibition” value (EAE [3]; [10]) was 28% and the “Mean Clinic Score” value (EAE [3]; [10]) was 2.1. The “% inhibition” value (EAE [3]; [11]) was 41%, the “Mean Clinic Score” value (EAE [3]; [11]) was 1.7 and the “protection against EAE” value (EAE [3]; administered subcutaneously (10-200 mg, day 7 before induction) or orally) was “could protect the rats against EAE”. For the same molecule, the “effect on EAE” value (EAE [3]; per os every other day from day of EAE induction (not shown)) was “similarly effective”, the “protection against AA” value (adjuvant arthritis (AA); 10, 50, 100 or 200 mg SC at day -7 before induction, FIG. 6) was “could protect the rats against AA” and the “effect on non-specific Con-A activation (IL-2)” value ([4]; Con A as non-specific activator) was “no effect”. For the same molecule, the “IL-2 Secretion from 5 × 10^6 Spleen Cells” value ([4]; GA activator conc. 2.5 (mg/mL), Comp. 3 50 μg/m (GA 75 μg/m where combined)) was “UQL”, the “IL-2 Secretion from 5 × 10^6 Spleen Cells” value ([4]; GA activator conc. 2.5 (mg/mL), Comp. 3 500 μg/m (GA 75 μg/m where combined)) was “UQL” and the “IL-2 Secretion from 5 × 10^6 Spleen Cells” value ([4]; GA activator conc. 25.0 (mg/mL), Comp. 3 50 μg/m (GA 75 μg/m where combined)) was “UQL”. The “IL-2 Secretion from 5 × 10^6 Spleen Cells” value ([4]; GA activator conc. 25.0 (mg/mL), Comp. 3 500 μg/m (GA 75 μg/m where combined)) was 7.9, the “IL-2 Secretion from 5 × 10^6 Spleen Cells” value ([4]; activator Con A 2.5 (mg/mL), Comp. 3 50 μg/m (GA 75 μg/m where combined)) was 426.8 and the “IL-2 Secretion from 5 × 10^6 Spleen Cells” value ([4]; activator Con A 2.5 (mg/mL), Comp. 3 500 μg/m (GA 75 μg/m where combined)) was 426.8. The “IL-2 Secretion from 5 × 10^6 Spleen Cells” value ([4]; activator conc. 0, Comp. 3 50 μg/m (GA 75 μg/m where combined)) was “UQL”, the “IL-2 Secretion from 5 × 10^6 Spleen Cells” value ([4]; activator conc. 0, Comp. 3 500 μg/m (GA 75 μg/m where combined)) was “UQL” and the “IL-2 secretion from spleen cells in response to GA” value ([4]; immunized with Compound 3 without GA, 50 and 500 μg/mouse) was “not elevated”. The “GMS (group mean score) Value ± S.D.” value (EAE [6]) was 3.3 ± 0.6, the “MMS (mean maximal score) Value ± S.D.” value (EAE [6]) was 4.7 ± 0.5 and the “Mean Duration” value (EAE [6]) was 4.7 ± 0.5 days. The “Mean onset” value (EAE [6]; SC immunization 11 days before EAE induction) was 10.3 ± 0.5 days, the “GMS inhibition (inh.* 3)” value (EAE [6]; vs PBS control) was 3.2% and the “MMS inhibition (inh.* 2)” value (EAE [6]; vs PBS control) was “.0%”.
